Assay results taken from patent publication US20100204130A1, “USE OF HUMAN NEUROPEPTIDE AS A THERAPEUTIC AGENT” (priority 2007, published 2010).
Where a SMILES comes first, the peptide text is derived from it.

How the values were obtained:
HIV-1IIIB = assay: HIV-1 antiviral assay (CPE reduction, MTS); format: cell-based; conditions: peptide 10 micrograms per ml, 6 days post-infection
Pseudomonas aeruginosa = Pseudomonas aeruginosa assay; format: cell-based; conditions: Pseudomonas aeruginosa growth; peptide 10 micrograms per ml; read visually
Interleukin-4 (IL-4) = assay: Th1/Th2 cytokine profiling assay: IL-4; format: cell-based, Balb/c mice; conditions: Ovalbumin-restimulated spleen cells; test peptide 10 micrograms per ml; 72 hours
Description: (§1) The Balb/c mice (originated in 1923, it is a popular strain and is used in many different research disciplines. Also classified as an inbred from the production of 20 or more successive brother-sister matings, the Balb/c mouse is albino and small in size) were immunized on Days 1, 15, and 29 with Ovalbumin (Ovalbumin is the main protein found in egg white, commonly used to stimulate an immunological reaction in test animals) in PBS (5 micrograms/injection). On day 50, spleens of the mice were harvested (3 weeks after last boost with Ovalbumin). Cells were cultured (2×10^5/well in triplicate) and incubated with culture medium or test peptide—10 micrograms per ml—for 30 min. Thereafter, additional Ovalbumin was added to the cells at 10 micrograms/ml for in vitro restimulation of the cells. 72 hours later, cell supernatants were harvested and assayed using the Becton Dickinson Mouse Th1/Th2 Cytokine CBA Kit. This kit can be used to measure Interleukin-2 (IL-2), Interleukin-4 (IL-4), Interleukin-5 (IL-5), Interferon-γ (IFN-γ), and Tumor Necrosis Factor-α (TNF-α) protein levels in a single sample. The kit performance has been optimized for analysis of physiologically relevant concentrations ([…] levels) of specific cytokine proteins in tissue culture supernatants and serum samples.

HCMV strain AD169 = assay: HCMV plaque reduction assay in MRC-5 cells; format: cell-based; conditions: HCMV AD169 in MRC-5 cells; peptide 10 micrograms per ml; 7-10 days
Description: Ganciclovir was used as positive control.

Interleukin-2 (IL-2) = assay: Th1/Th2 cytokine profiling assay: IL-2; format: cell-based, Balb/c mice; conditions: Ovalbumin-restimulated spleen cells; test peptide 10 micrograms per ml; 72 hours
Description: as §1

[1] = system: Tumor Necrosis Factor-α (TNF-α); assay: Th1/Th2 cytokine profiling assay: TNF-α; format: cell-based, Balb/c mice; conditions: Ovalbumin-restimulated spleen cells; test peptide 10 micrograms per ml; 72 hours
Description: as §1

HUVEC = assay: Endothelial tube formation assay; format: cell-based, human; conditions: test peptide 10 micrograms per ml, 20 hours
Description: The endothelial tube formation assay is based on the ability of endothelial cells to form three-dimensional capillary-like tubular structures when cultured on a gel of basement membrane extract. The endothelial tube formation assay represents a powerful model for studying inhibition and induction of angiogenesis. Pre-labeled HUVEC with Calcein AM were seeded in a 96-well culture plate coated with extracellular metrix (Chemicon international Cat. ECM625) and treated with test peptide—10 micrograms per ml—in full growth medium. […] control was vehicle only. The endothelial cells were allowed to form tubes for 20 hours and were then examined under an inverted fluorescent microscope. Duplicate wells for each treatment were photographed and quantitatively analyzed for an average tubule length using image analysis software ImageProPlus. Raw data were expressed as average tubule lengths in pixels ±standard deviation. Statistic p values were computed using the Student's t-test.

A549 cells = assay: Propidium iodide cell cycle assay; format: cell-based, human; conditions: test peptide 10 micrograms per ml, 24 hours, FACS
Description: Human A549 cells (carcinomic human alveolar basal epithelial cells) were utilized in the experiments employing the Propidium iodide cell cycle assay. The eukaryotic cell cycle is a series of events that take place in a cell leading to its replication. The regulation of the cell cycle involves steps crucial to the cell, including detecting and repairing genetic damage, and provision of various checks to prevent uncontrolled cell division. The molecular events that control the cell cycle are ordered and directional; that is, each process occurs in a sequential fashion. The cell cycle consists of four distinct phases: G1 phase, S phase, G2 phase (collectively known as interphase) and M phase. M phase is itself composed of two tightly coupled processes: mitosis, in which the cell's chromosomes are divided between the two daughter cells, and cytokinesis, in which the cell's cytoplasm divides forming distinct cells. Activation of each phase is dependent on the proper progression and completion of the previous one. Cells that have temporarily or reversibly stopped dividing are said to have entered a state of quiescence called Go phase. The relatively brief M phase consists of nuclear division and cytoplasmic division. The first phase within interphase, from the end of the previous M phase till the beginning of DNA synthesis is called G1 (G indicating gap or growth). During this phase the biosynthetic activities of the cell resume at a high rate. This phase is marked by synthesis of various enzymes that are required in S phase, mainly those needed for DNA replication. The ensuing S phase starts when DNA synthesis commences; when it is complete, all of the chromosomes have been replicated. The cell then enters the G2 phase, which lasts until the cell enters mitosis. Significant protein synthesis occurs during this phase, mainly involving the production of microtubules, which are required during the process of mitosis. […]
Propidium iodide is an intercalating agent and a fluorescent molecule that can be used to stain DNA. […] After incubation for 40 min at 37° C., cells were analyzed in the FACS.

Interleukin-5 (IL-5) = assay: Th1/Th2 cytokine profiling assay: IL-5; format: cell-based, Balb/c mice; conditions: Ovalbumin-restimulated spleen cells; test peptide 10 micrograms per ml; 72 hours
Description: as §1

RAW 264.7 cells = assay: Phagocytosis assay (Fluorescein-labeled Escherichia coli); format: cell-based, mouse; conditions: test peptide 10 micrograms per ml, flow cytometry
MRSA = assay: Methicillin Resistant Staphylococcus Aureus (MRSA) assay; format: cell-based; conditions: MRSA growth; peptide 10 micrograms per ml; read visually
TNF alpha = TNF alpha production assay (LPS-stimulated macrophages, ELISA); format: cell-based; conditions: human macrophages, test peptide 10 micrograms per ml, lipopolysaccharide 200 ng/ml, overnight
Description: Human Peripheral Blood Mononuclear Cells (PBMC) were obtained from normal human donors. The macrophages were prepared by adherence of PBMC to the plastic wells of the plates. After 8 days in culture in the presence of recombinant human macrophage-colony stimulating factor at 2 ng/ml, differentiated macrophages were preincubated with test peptide—10 micrograms per ml—for 30 min, followed by in-well stimulation by the addition of lipopolysaccharide at a final concentration of 200 ng/ml. Not stimulated macrophages served as negative background control.
After overnight incubation, supernatants from the control and LPS-stimulated cultures were harvested and assayed for TNF alpha production employing a TNF alpha specific ELISA.

[2] = Cytotoxicity in HCMV assay (CellTiter 96 cell viability); conditions: human, MRC-5 cells (embryonal lung fibroblasts)
[3] = system: Human Peripheral Blood Mononuclear Cells (PBMC); assay: B cell proliferation assay (SAC plus Interleukin-2, 3H-thymidine); format: cell-based; conditions: test peptide 10 micrograms per ml
Description: Human Peripheral Blood Mononuclear Cells (PBMC) were obtained from normal human donors. The B cell proliferation was induced by stimulation of the cells with the B cell mitogen Staphylococcus aureus Cowans I (SAC) plus Interleukin-2, either in the absence (positive proliferation control), or in the presence of test peptide—10 micrograms per ml—to examine their effects on the B cell response. 10^5/well PBMC were plated in 96-well microtiter plates and assayed in duplicate with the peptide. Cell cultures were incubated at 37° C. for 3 days in a 5% CO2 incubator and were thereafter pulsed with 1 microCi/well ^3H-thymidine for additional 12 hours of culture. At the end of incubation time, the plates were harvested and the cells counted by liquid scintillation for the incorporation of ^3H-thymidine as a measure of B cell proliferation.

[4] = system: hepatitis B virus (HBV) ayw strain; assay: HBV replication assay in HepG2-2.2.15 cells (TaqMan PCR of secreted HBV DNA); format: cell-based; conditions: test peptide 10 micrograms per ml, six days, HBV DNA by TaqMan PCR
[5] = system: Primary Human endothelial cells (HUVEC); assay: Endothelial cell migration assay; format: cell-based; conditions: test peptide 10 micrograms per ml, 22 hours
Description: Endothelial cell migration is a prerequisite for the process of neo-vascularization or angiogenesis which is crucial for on-site recruitment of blood vessel formation. Primary Human endothelial cells (HUVEC) were seeded in insert chambers with 3 micrometer pore size of multi-transwell plate for 6 hours at 37° C. in Endothelial Cell Basal Medium (EBM) supplemented with 0.1% bovine serum albumin. Thereafter, designated concentration of test peptide—10 micrograms per ml—was added in duplicate wells. The endothelia were allowed to migrate for 22 hours at 37° C., then, migrated cells were fixed and stained with Hoechst 33342 dye. Images of 3 fields per insert were taken and the number of migrated cells per field were quantified using the ImageProPlus software. Data were analyzed for the average number of the migrated cells and standard deviation of six data points for each treatment condition. Active test peptide against HUVEC migration was determined based on 50% inhibition of migrated cells as compared with the control. Statistic p values were computed using the Student's t-test.

[6] = Cytotoxicity in HIV-1 assay (MTS cell viability); conditions: human, CEM-SS cells
[7] = Cytotoxicity in HBV assay (dye uptake cell viability); format: cell-based; conditions: human, HepG2-2.2.15 cells, test peptide 10 micrograms per ml
Streptococcus pneumoniae = Streptococcus pneumoniae assay; format: cell-based; conditions: Streptococcus pneumoniae growth; peptide 10 micrograms per ml; read visually
Interferon-γ (IFN-γ) = assay: Th1/Th2 cytokine profiling assay: IFN-γ; format: cell-based, Balb/c mice; conditions: Ovalbumin-restimulated spleen cells; test peptide 10 micrograms per ml; 72 hours
Description: as §1

[8] = system: Human Peripheral Blood Mononuclear Cells (PBMC); assay: T cell proliferation assay (PHA, 3H-thymidine); format: cell-based; conditions: test peptide 10 micrograms per ml
Description: Human Peripheral Blood Mononuclear Cells (PBMC) were obtained from normal human donors. The T cell proliferation was induced by stimulation of the cells with the T cell mitogen phytohemagglutinin (PHA), either in the absence (positive proliferation control), or in the presence of test peptide—10 micrograms per ml—to examine their effects on the T cell proliferating response. 10^5/well PBMC were plated in 96-well microtiter plates and assayed in duplicate with the peptide. Cell cultures were incubated at 37° C. for 3 days in a 5% CO2 incubator and were thereafter pulsed with 1 microCi/well ^3H-thymidine for additional 12 hours of culture. At the end of incubation time, the plates were harvested and the cells counted by liquid scintillation for the incorporation of ^3H-thymidine as a measure of T cell proliferation.

For `CC(C)(C)NC(=O)[C@@H]1CN(Cc2cccnc2)CCN1C[C@@H](O)C[C@@H](Cc1ccccc1)C(=O)N[C@H]1c2ccccc2C[C@H]1O` [Indinavir], the “% CPE reduction in HIV-1 infected CEM-SS cells” value (“% CPE reduction” for short) (HIV-1IIIB) was 100%.
In the case of `Cc1cn([C@H]2C[C@H](N=[N+]=[N-])[C@@H](CO)O2)c(=O)[nH]c1=O` [AZT], the “% CPE reduction” value (HIV-1IIIB) is reported as 99%.
For `CC(C)C[C@H](NC(=O)CNC(=O)[C@H](CCC(=O)O)NC(=O)CNC(=O)[C@H](C)N)C(=O)N[C@@H](CC(N)=O)C(=O)N[C@@H](CO)C(=O)N[C@@H](CCC(N)=O)C(=O)N[C@@H](Cc1ccccc1)C(=O)N[C@@H](Cc1c[nH]c2ccccc12)C(=O)N[C@@H](CO)C(=O)N[C@@H](CC(C)C)C(=O)N[C@@H](C)C(=O)N[C@@H](C)C(=O)N1CCC[C@H]1C(=O)N[C@@H](CCC(N)=O)C(=O)N[C@@H](CCCNC(=N)N)C(=O)N[C@@H](Cc1ccccc1)C(N)=O` [Neuropeptide AF, Ala-Gly-Glu-Gly-Leu-Asn-Ser-Gln-Phe-Trp-Ser-Leu-Ala-Ala-Pro-Gln-Arg-Phe-NH2] (H-AGEGLNSQFWSLAAPQRF-NH2), the “% inhibition” value (Pseudomonas aeruginosa) was 0.0%, the “% CPE reduction” value (HIV-1IIIB) was 0.0% and the “IL-4 spleen cells; TH2 response (% of control)” value (Interleukin-4 (IL-4)) was 0.0 % of control. For the same compound, the “% plaque reduction” value (HCMV strain AD169) was 6.9%, the “IL-2 spleen cells (% of control)” value (Interleukin-2 (IL-2)) was 0.0 % of control and the “TNF-a spleen cells; TH1 response (% of control)” value [1] was 92.1 % of control. For the same compound, the “% inhibition of tube formation” value (HUVEC) was −9%, the “Cell cycle analysis G0/G1” value (A549 cells) was 55.5 and the “Cell cycle analysis G2/M” value (A549 cells) was 10.0. For the same compound, the “Cell cycle analysis S” value (A549 cells) was 34.5, the “IL-5 spleen cells; TH2 response (% of control)” value (Interleukin-5 (IL-5)) was 52.2 % of control and the “% of control phagocytosis” value (RAW 264.7 cells) was 105.9%. The “% inhibition” value (MRSA) was 0.0%, the “% of LPS induction” value (TNF alpha) was 104.7% and the viability at 144 h [2] was 100%. For the same compound, the “% of SAC/IL2 induced control” value [3] was 105.7%, the “% inhibition of HBV replication in HEP G2 cells” value [4] was 42.6% and the “% inhibition of migration” value [5] was −4%. For the same compound, the viability at 10 micrograms per ml [6] was 81.6%, the viability at 144 h, 10 micrograms per ml [7] was 100% and the “% inhibition” value (Streptococcus pneumoniae) was 0.0%. The “IFNγ spleen cells; TH1 response (% of control)” value (Interferon-γ (IFN-γ)) was 84.8 % of control and the “% of PHA induced control” value [8] was 103.8%.
